Experimental data as given in patent publication US11028051B2, “Tetrahydroquinoline-based bromodomain inhibitors” (St. Jude Children's Research Hospital, priority 2016, dated 2021).

How the values were obtained:
Assay in all cases: competitive TR-FRET assay, BET-BD with acetylated peptide ligand
Assay type in all cases: binding
BRD4-BD2 = BRD4-BD2 (Homo sapiens (Human), UniProt O60885); settings: BRD4-BD2; Table 11 additional modifications; read-out: 4.2 EC50
Procedure: (§1) Inhibitor potency was determined using a competitive TR-FRET assay as detailed herein, measuring interaction of the respective BET-BD with an acetylated peptide ligand (Table 2).

BRD2-BD1 = BRD2-BD1 (Homo sapiens (Human), UniProt P25440); settings: BRD2-BD1; Table 11 additional modifications; read-out: 2.1 EC50
Procedure: as §1

BRDT = BRDT (Homo sapiens, UniProt Q58F21); settings: BRDT; Table 11 additional modifications; read-out: BRDT EC50
Procedure: as §1

BRD3-BD1 = BRD3-BD1 (Homo sapiens (Human), UniProt Q15059); settings: BRD3-BD1; Table 11 additional modifications; read-out: 3.1 EC50
Procedure: as §1

BRD2-BD2 = BRD2-BD2 (Homo sapiens (Human), UniProt P25440); settings: for EC50: BRD2-BD2, Table 11 additional modifications, read-out: 2.2 EC50; for 2.1/2.2: ratio of BRD2-BD1 EC50 to BRD2-BD2 EC50 (selectivity)
Procedure: as §1

BRD4-BD1 = BRD4-BD1 (Homo sapiens (Human), UniProt O60885); settings: BRD4-BD1; Table 11 additional modifications; read-out: 4.1 EC50
Procedure: as §1

Sequence of BRD2-BD2 (P25440 344-453): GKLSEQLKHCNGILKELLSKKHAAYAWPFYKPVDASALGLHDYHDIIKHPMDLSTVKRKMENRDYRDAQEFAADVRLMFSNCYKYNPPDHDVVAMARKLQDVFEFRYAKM
Sequence of BRD3-BD1 (Q15059 34-140): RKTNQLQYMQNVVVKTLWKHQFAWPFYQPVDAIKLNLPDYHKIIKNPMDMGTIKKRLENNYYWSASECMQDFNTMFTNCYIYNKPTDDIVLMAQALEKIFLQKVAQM
Sequence of BRD2-BD1 (P25440 74-180): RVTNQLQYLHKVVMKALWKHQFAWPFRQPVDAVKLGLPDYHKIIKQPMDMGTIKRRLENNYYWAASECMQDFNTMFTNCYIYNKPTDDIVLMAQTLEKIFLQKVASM

Row | SMILES | EC50 (BRD4-BD2) | EC50 (BRD2-BD1) | EC50 (BRDT) | EC50 (BRD3-BD1) | EC50 (BRD2-BD2) | 2.1/2.2 (BRD2-BD2) | EC50 (BRD4-BD1)
1 | CC(=O)N1c2ccc(-c3coc4ccccc34)cc2[C@H](NC(=O)OC(C)C)C[C@@H]1C [compound 90] | 56 µM | 11 µM | 14 µM | 3.4 µM | 3.5 µM | 0.84 | 8.7 µM
2 | COc1cccc(N[C@@H]2C[C@H](C)N(C(C)=O)c3ccc(-c4cccc(NC(C)=O)c4)cc32)c1 [compound 21] | 0.04 µM | 0.93 µM | 1.8 µM | 0.59 µM | 0.03 µM | 31 | 1.5 µM
3 | COc1ccc(N[C@@H]2C[C@H](C)N(C(C)=O)c3ccc(-c4cccc(NC(C)=O)c4)cc32)cc1 [compound 18] | 0.08 µM | 1.9 µM | 2.6 µM | 1.5 µM | 0.11 µM | 4.8 | 2.3 µM
4 | CC(=O)N1c2ccc(-c3c[nH]c4ccccc34)cc2[C@H](NC(=O)OC(C)C)C[C@@H]1C [compound 91] | 37 µM | 1.3 µM | 4.9 µM | 1.1 µM | 1.1 µM | 0.032 | 0.86 µM
5 | CC(=O)Nc1cccc(-c2ccc3c(c2)[C@H](NC2CCCC2)C[C@H](C)N3C(C)=O)c1 [compound 38] | 2.6 µM | 5.5 µM | 11 µM | 3.7 µM | 2.4 µM | 2.3 | 6.8 µM
6 | CC(=O)Nc1cccc(-c2ccc3c(c2)[C@H](NC(=O)OC(C)C)C[C@H](C)N3C(C)=O)c1 [compound 1] | 0.23 µM | 0.85 µM | 5.9 µM | 0.62 µM | 0.29 µM | 2.9 | 0.67 µM
7 | CC(=O)Nc1cccc(-c2ccc3c(c2)[C@H](Nc2cccc(OC(F)(F)F)c2)C[C@H](C)N3C(C)=O)c1 [compound 22] | 1.9 µM | 26 µM | 10 µM | 10 µM | 0.79 µM | 33 | 27 µM
8 | CC(=O)Nc1cccc(-c2ccc3c(c2)[C@H](NCc2ccc(C(F)(F)F)cc2)C[C@H](C)N3C(C)=O)c1 [compound 75] | 53 µM | 53 µM |  | 36 µM | 53 µM | 1.0 | 53 µM
9 | CC(=O)Nc1cccc(-c2ccc3c(c2)[C@H](NC(=O)CCc2ccccc2)C[C@H](C)N3C(C)=O)c1 [compound 74] | 77 µM | 11 µM |  | 9.8 µM | 17 µM | 0.65 | 19 µM
10 | CC(=O)N1c2ccc(-c3cccc(N)c3)cc2[C@H](NC(=O)OC(C)C)C[C@@H]1C [compound 2] | 0.64 µM | 0.73 µM |  | 0.25 µM | 0.11 µM | 6.6 | 1.88 µM
11 | CC(=O)Nc1cccc(-c2ccc3c(c2)[C@H](NC(=O)c2ccccc2)C[C@H](C)N3C(C)=O)c1 [compound 62] | 41 µM | 77 µM |  | 62 µM | 77 µM | 6.0 | 77 µM
12 | CC(=O)Nc1cccc(-c2ccc3c(c2)[C@H](NCCCc2ccccc2)C[C@H](C)N3C(C)=O)c1 [compound 70] | 26 µM | 16 µM |  | 9.9 µM | 69 µM | 0.23 | 69 µM
13 | CC(=O)N1c2ccc(-c3ccc4[nH]ccc4c3)cc2[C@H](NC(=O)OC(C)C)C[C@@H]1C [compound 81] | 8.1 µM | 8 µM |  | 5.9 µM | 4.7 µM | 2.7 | 6.6 µM
14 | CC(=O)N1c2ccc(-c3cccc(CN)c3)cc2[C@H](NC(=O)OC(C)C)C[C@@H]1C [compound 88] | 0.65 µM | 2.1 µM |  | 1.4 µM | 0.47 µM | 11 | 2.9 µM
15 | CC(=O)Nc1cccc(-c2ccc3c(c2)[C@H](NC(=O)c2ccc(F)cc2)C[C@H](C)N3C(C)=O)c1 [compound 68] | 20 µM | 70 µM |  | 41 µM | 10 µM | 6.9 | 80 µM
16 | CC(=O)Nc1cccc(-c2ccc3c(c2)[C@H](NC(=O)c2ccc(Cl)cc2)C[C@H](C)N3C(C)=O)c1 [compound 72] | 51 µM | 51 µM |  | 27 µM | 51 µM | 1.0 | 39 µM
17 | CC(=O)N1c2ccc(-c3cccn(C)c3=O)cc2[C@H](NC(=O)OC(C)C)C[C@@H]1C [compound 87] | 7.6 µM | 68 µM |  | 13 µM | 13 µM | 5.4 | 68 µM
18 | CC(=O)Nc1cccc(-c2ccc3c(c2)[C@H](NCc2ccccc2)C[C@H](C)N3C(C)=O)c1 [compound 63] | 7.6 µM | 13 µM |  | 6.9 µM | 2.4 µM | 1.0 | 13 µM
19 | COc1cccc(-c2ccc3c(c2)[C@H](NC(=O)OC(C)C)C[C@H](C)N3C(C)=O)c1 [compound 3] | > 67.8 µM | 5.8 µM |  | 2.3 µM | 0.85 µM | 6.8 | > 67.8 µM
20 | CC(=O)Nc1cccc(-c2ccc3c(c2)[C@H](NC(=O)CC(C)C)C[C@H](C)N3C(C)=O)c1 [compound 73] | 19 µM | 16 µM |  | 12 µM | 83 µM | 0.20 | 33 µM
21 | COc1ccc(C(=O)N[C@@H]2C[C@H](C)N(C(C)=O)c3ccc(-c4cccc(NC(C)=O)c4)cc32)cc1 [compound 66] | 78 µM | 71 µM |  | 77 µM | 36 µM | 2.0 | 78 µM
22 | CC(=O)N1c2ccc(-c3cc4ccccc4o3)cc2[C@H](NC(=O)OC(C)C)C[C@@H]1C [compound 86] | 41 µM | 1.8 µM |  | 1 µM | 27 µM | 4.7 | 2.5 µM
23 | CC(=O)Nc1cccc(-c2ccc3c(c2)[C@H](NC(=O)c2ccc(C(F)(F)F)cc2)C[C@H](C)N3C(C)=O)c1 [compound 69] | 75 µM | 75 µM |  | 75 µM | 2.7 µM | 28 | 74 µM

Second part, the compound after the results:

Row | EC50 (BRD4-BD2) | EC50 (BRD2-BD1) | EC50 (BRDT) | EC50 (BRD3-BD1) | EC50 (BRD2-BD2) | 2.1/2.2 (BRD2-BD2) | EC50 (BRD4-BD1) | SMILES
24 | 0.06 µM | 2.3 µM | 4.1 µM | 1.2 µM | 0.11 µM | 17 | 2.9 µM | CC(=O)Nc1cccc(-c2ccc3c(c2)[C@H](Nc2ccc([N+](=O)[O-])cc2)C[C@H](C)N3C(C)=O)c1 [compound 127]
25 | 2 µM | 4 µM |  | 2.7 µM | 1.1 µM | 6.0 | 3.5 µM | COC(=O)c1ccoc1-c1ccc2c(c1)[C@H](NC(=O)OC(C)C)C[C@H](C)N2C(C)=O [compound 82]
26 | 3.5 µM | 2.5 µM |  | 0.99 µM | 0.46 µM | 2.5 | 2.1 µM | CC(=O)N1c2ccc(-c3cccc(NC(=O)OC(C)(C)C)c3)cc2[C@H](NC(=O)OC(C)C)C[C@@H]1C [compound 84]
27 | 10 µM | 8.1 µM |  | 11 µM | 2 µM | 4.1 | 7.3 µM | CC(=O)Nc1cccc(-c2ccc3c(c2)[C@H](NC(=O)Cc2ccccc2)C[C@H](C)N3C(C)=O)c1 [compound 64]
28 | 3.4 µM | 7.5 µM |  | 4.3 µM | 1.6 µM | 1.7 | 6 µM | CCOC(=O)c1ccc(-c2ccc3c(c2)[C@H](NC(=O)OC(C)C)C[C@H](C)N3C(C)=O)o1 [compound 83]
29 | 11 µM | 24 µM |  | 36 µM | 18 µM | 1.4 | 60 µM | CCC(=O)N[C@@H]1C[C@H](C)N(C(C)=O)c2ccc(-c3cccc(NC(C)=O)c3)cc21 [compound 67]
30 | 8.8 µM | 7.1 µM |  | 2.2 µM | 2.7 µM | 2.6 | 8.2 µM | CC(=O)N1c2ccc(-c3ccc4cc[nH]c4c3)cc2[C@H](NC(=O)OC(C)C)C[C@@H]1C [compound 79]
31 | 0.65 µM | 3.4 µM |  | 2.3 µM | 0.27 µM | 12 | 3.2 µM | CC(=O)Nc1ccc(N[C@@H]2C[C@H](C)N(C(C)=O)c3ccc(-c4cccc(NC(C)=O)c4)cc32)cc1 [compound 76]
32 | 6.2 µM | 7.7 µM |  | 5.2 µM | 1.1 µM | 7.0 | > 96 µM | CC(=O)N1c2ccc(-c3cccc([N+](=O)[O-])c3)cc2[C@H](NC(=O)OC(C)C)C[C@@H]1C [compound 58]
33 | 4 µM | 6.3 µM |  | 2.1 µM | 1.1 µM | 2.0 | 5.3 µM | CC(=O)N1c2ccc(-c3ccc4occc(=O)c4c3)cc2[C@H](NC(=O)OC(C)C)C[C@@H]1C [compound 80]
